Data from ChEMBL document CHEMBL1201862, “PubChem BioAssay data set” (2004).
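Following 48 hours of exposure in 96-well plates, responses at five concentrations were used to interpolate endpoints linearly. Abbreviation: GI50, concentration required for 50% inhibition of growth.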 Calls of active or inactive are those of the source. Rule as the data show it: active = GI50 up to about 1.1 µM and inactive = higher.

Legend:
Assay in all cases: growth of human tumour cells (NCI), 48 h
[1] = tested on: DLD-1
[2] = tested on: EKVX
[3] = tested on: HCC 2998
[4] = tested on: HCT-116
[5] = tested on: HT-29
[6] = tested on: IGROV-1
[7] = tested on: K562
[8] = tested on: NCI-H23
[9] = tested on: NCI-H460
[10] = tested on: NCI-H522
[11] = tested on: OVCAR-3
[12] = tested on: SF-268
[13] = tested on: SF-295
[14] = tested on: SK-MEL-28
[15] = tested on: SK-MEL-2
[16] = tested on: SR
[17] = tested on: UACC-257
[18] = tested on: UO-31
[19] = tested on: DU-145
[20] = tested on: T47D

Measured: GI50

CCOc1cc2c[n+](C)c3c4cc(OC)c(OC)cc4ccc3c2cc1OC
inactive: [1] > 100 µM | [2] > 100 µM | [3] > 100 µM | [4] > 100 µM | [5] 13.6 µM | [6] > 100 µM | [7] > 100 µM | [8] > 100 µM | [9] > 100 µM | [10] > 100 µM | [11] > 100 µM | [12] > 100 µM | [13] > 100 µM | [14] > 100 µM | [15] > 100 µM | [16] 20.4 µM | [17] > 100 µM | [18] > 100 µM

COc1cc(C2C(C(=O)Nc3ccc([N+](=O)[O-])cc3)=C(C)NC(C)=C2C(=O)Nc2ccc([N+](=O)[O-])cc2)ccc1O
inactive: [1] 25.6 µM | [2] 39.1 µM | [3] 18.4 µM | [4] 16 µM | [5] 19.4 µM | [6] 24.9 µM | [7] 13.5 µM | [8] 26.7 µM | [9] 23.3 µM | [10] 15.8 µM | [11] 22.7 µM | [12] 23.2 µM | [13] 24.7 µM | [14] 4.16 µM | [15] 15.9 µM | [16] 5.07 µM | [17] 24.2 µM | [18] 19.1 µM

CC(Oc1ccc2c(=O)cc(-c3ccccc3)oc2c1)C(=O)O (centres undefined)
inactive: [1] > 100 µM | [2] > 100 µM | [3] > 100 µM | [4] > 100 µM | [5] > 100 µM | [6] > 100 µM | [7] > 100 µM | [8] > 100 µM | [9] > 100 µM | [10] > 100 µM | [11] > 100 µM | [12] > 100 µM | [13] > 100 µM | [14] > 100 µM | [16] > 100 µM | [17] > 100 µM | [18] > 100 µM

Cc1ccc(S(=O)(=O)c2ccc(NC(=O)SCCC(=O)O)cc2)cc1
inactive: [1] > 100 µM | [2] > 100 µM | [3] > 100 µM | [4] > 100 µM | [5] > 100 µM | [6] 5.14 µM | [7] > 100 µM | [8] > 100 µM | [9] > 100 µM | [10] > 100 µM | [11] > 100 µM | [12] > 100 µM | [13] > 100 µM | [14] > 100 µM | [15] > 100 µM | [16] > 100 µM | [17] > 100 µM | [18] > 100 µM

N#C/C(=C\c1c[nH]c2ccccc12)C(=O)c1ccc(O)c(O)c1
inactive: [1] 47.9 µM | [19] 27.4 µM | [2] 34.8 µM | [3] 32.5 µM | [4] 31.4 µM | [5] 28 µM | [6] 24.6 µM | [7] 23.2 µM | [8] 45.8 µM | [9] 24.5 µM | [10] 13.5 µM | [11] 3.33 µM | [12] 39.7 µM | [13] 14.6 µM | [14] 47.3 µM | [15] > 36.7 µM | [16] 9.82 µM | [20] 31 µM | [17] 50.7 µM | [18] 6.85 µM

CCOC(=O)C1=C(C(=O)OCC)C2c3ccccc3C=CN2C(C(=O)OCC)=C(SC)S1 (centres undefined)
inactive: [1] > 100 µM | [2] > 100 µM | [3] > 100 µM | [4] 50.7 µM | [5] > 100 µM | [6] > 100 µM | [7] 41.8 µM | [8] 87.1 µM | [9] > 100 µM | [10] 24.4 µM | [11] 96.2 µM | [12] > 100 µM | [13] > 100 µM | [14] > 100 µM | [15] > 100 µM | [16] 19.3 µM | [17] 42.5 µM | [18] 74.1 µM

N#C/C(=C\c1cc2ccccc2c2ccccc12)c1ccccc1
inactive: [1] 5.6 µM | [2] 20 µM | [3] 11 µM | [4] 5.3 µM | [5] 4.45 µM | [6] 11.8 µM | [7] 3.13 µM | [8] > 30.5 µM | [9] 4.67 µM | [10] 5.83 µM | [11] 3.45 µM | [12] 8.17 µM | [13] 5.93 µM | [14] 24 µM | [15] 3.39 µM | [16] 2.9 µM | [17] 9.62 µM | [18] 22.2 µM

COc1ccc(S(=O)(=O)NNS(C)(=O)=O)cc1
inactive: [1] 87.5 µM | [2] > 100 µM | [3] > 100 µM | [4] > 100 µM | [5] > 100 µM | [6] > 100 µM | [7] > 100 µM | [8] > 100 µM | [10] > 100 µM | [12] > 100 µM | [13] > 100 µM | [15] 60.5 µM | [16] > 100 µM | [17] > 100 µM | [18] > 100 µM

CSc1nc(-c2ccccc2)nc(N2CCOCC2)[s+]1
inactive: [1] 91.8 µM | [2] > 100 µM | [3] > 100 µM | [4] > 100 µM | [5] 53.1 µM | [6] > 100 µM | [7] 37.6 µM | [8] > 100 µM | [9] 39 µM | [10] 32.8 µM | [11] > 100 µM | [12] > 100 µM | [14] > 100 µM | [15] > 100 µM | [16] 16.6 µM | [18] > 100 µM

Cc1ccc(C)c(NC(=O)CCc2nnc(S)[nH]2)c1
inactive: [1] 54.1 µM | [2] > 100 µM | [3] > 100 µM | [4] 69.2 µM | [5] > 100 µM | [6] 86.7 µM | [7] > 100 µM | [8] > 100 µM | [9] > 100 µM | [10] > 100 µM | [11] > 100 µM | [12] > 100 µM | [13] > 100 µM | [14] > 100 µM | [15] > 100 µM | [16] 6.43 µM | [17] > 100 µM | [18] > 100 µM

CC(=O)C1=C(C)Cn2c(=O)c3ccccc3c(=O)n2C1
inactive: [1] > 100 µM | [2] > 100 µM | [3] > 100 µM | [4] > 100 µM | [5] > 100 µM | [6] > 100 µM | [7] > 100 µM | [8] > 100 µM | [9] > 100 µM | [10] > 100 µM | [11] > 100 µM | [12] > 100 µM | [13] > 100 µM | [14] > 100 µM | [15] > 100 µM | [16] > 100 µM | [17] > 100 µM | [18] > 100 µM
